Measured values as given in US5358712A, “Radiopharmaceutical agents for the detection of Alzheimer's disease” (Regents of the University of Minnesota, priority 1993, dated 1994).

Tests used:
[1] = Blocking experiments: inhibition of radiotracer accumulation in the rat by coadministered compound; assay type: in vivo, rat (male Wistar); conditions: rat, iv, rat, iv, 60 min
Procedure: (§1) *Animals in group 1 received an iv injection of (+)4-[^125 l]HIPP
(§2) only. For groups 2, 3, and 4, the radiotracer was coadministered with the
(§3) hydrochlorides of (+)7 (0.53 mg/kg), (-)7 (0.53 mg/kg) and vesamicol (0.3
(§4) Four groups of male Wistar rats (n=3) were used in these experiments. All animals received an iv dose of 8-10 μCi of the radiotracer in 0.1 ml of 50% aq. ethanol. Additionally, in groups 2, 3 and 4, the radiotracer was coadministered with (+)-HBrPP.HCl(1.3 μmol/kg), (-)-HBrPP.HCl(1.3 μmol/kg) and (dl)-vesamicol hydrochloride (1.1 μmol/kg), respectively. At 60 min. post-injection, blood was collected by cardiac puncture and the animals sacrificed as described above. The data was analyzed as outlined above.
(§5) NOTE: The dose of radiotracer injected was 5-7 mCi. Group I was the
(§6) control, injected with the radiotracer only. Group II included the
(§7) simultaneous injection of "cold"(dl)3-HIPP (HCl) (0.53 mg/kg). Group III
(§8) included the simultaneous injection of (dl) vesamicol (HCl) (0.31 mg/kg).
(§9) All rats were sacrificed at one hour postinjection.
(§10) NOTE: Group I was the control, injected with the radiotracer only. Group
(§11) II included the simultaneous injection of "cold"(dl)3-HIPP (HCl) (0.53
(§12) mg/kg). Group III included the simultaneous injection of (dl) vesamicol
(§13) hydrochloride (0.31 mg/kg). The dose of radiotracer was 8-9 μCi. All
(§14) rats were sacrificed at one hour postinjection.
(§15) NOTE: Group I received (+)[^125 l]13 only. Group II received the (+)
(§16) radiotracer coinjected with 0.31 mg/kg (dl)vesamicol hydrochloride. Group
(§17) III received (-)[^125 l]13 only. Group IV received the (-) radiotrace
(§18) coinjected with 0.31 mg/kg (dl)vesamicol hydrochloride. All animals were
(§19) sacrificed at one hour postinjection. The dose of radiotracer injected pe

[2] = Tissue distribution (biodistribution) of radioiodinated compound in the rat; conditions: rat; for tissue uptake at 5 min / tissue uptake at 1 h / Brain: Blood Ratio / Heart: Blood Ratio / radioactivity in blood / radioactivity in brain / radioactivity in heart / radioactivity in kidney / radioactivity in liver / radioactivity in lung / radioactivity in muscle / radioactivity in spleen: iv
vesamicol receptor = assay: Blocking experiments: inhibition of radiotracer accumulation in the rat by coadministered compound; assay type: in vivo, rat (male Wistar); conditions: rat, iv, 60 min
Procedure: as §1, §2, §3, §4, §5, §6, §7, §8, §9, §10, §11, §12, §13, §14, §15, §16, §17, §18, §19

[3] = blood, radiotracer only (control), read-out: radioactivity in blood
[4] = brain, + (dl)-vesamicol HCl 0.3 (Table 3) or 0.31 mg/kg, read-out: radioactivity in brain
[5] = brain, radiotracer only (control), read-out: radioactivity in brain
[6] = heart, + (dl)-vesamicol HCl 0.3 (Table 3) or 0.31 mg/kg, read-out: radioactivity in heart
[7] = heart, radiotracer only (control), read-out: radioactivity in heart
[8] = kidney, + (dl)-vesamicol HCl 0.3 (Table 3) or 0.31 mg/kg, read-out: radioactivity in kidney
[9] = kidney, radiotracer only (control), read-out: radioactivity in kidney
[10] = liver, + (dl)-vesamicol HCl 0.3 (Table 3) or 0.31 mg/kg, read-out: radioactivity in liver
[11] = liver, radiotracer only (control), read-out: radioactivity in liver
[12] = lung, + (dl)-vesamicol HCl 0.3 (Table 3) or 0.31 mg/kg, read-out: radioactivity in lung
[13] = lung, radiotracer only (control), read-out: radioactivity in lung
[14] = muscle, + (dl)-vesamicol HCl 0.3 (Table 3) or 0.31 mg/kg, read-out: radioactivity in muscle
[15] = muscle, radiotracer only (control), read-out: radioactivity in muscle
[16] = spleen, + (dl)-vesamicol HCl 0.3 (Table 3) or 0.31 mg/kg, read-out: radioactivity in spleen
[17] = spleen, radiotracer only (control), read-out: radioactivity in spleen
[18] = + (dl)-vesamicol HCl 0.3 (Table 3) or 0.31 mg/kg

OC(Cc1ccc([125I])cc1)CN1CCC(c2ccccc2)CC1 (single isomer, unassigned; (-)) [(-)-4-[^125 l]HIPP, 2-Hydroxy-3-(4-iodophenyl)-1-(4-phenylpiperidyl)propane]
tissue uptake at 1 h ([1]; blood, + (+)-7 HCl 0.53 mg/kg, read-out: radioactivity in blood): 0.05 %ID/g | tissue uptake at 1 h ([1]; blood, + (-)-7 HCl 0.53 mg/kg, read-out: radioactivity in blood): 0.04 %ID/g | tissue uptake at 1 h ([1]; blood, + (dl)-vesamicol HCl 0.3 (Table 3) or 0.31 mg/kg, read-out: radioactivity in blood): 0.02 %ID/g | tissue uptake at 1 h [1, 3]: 0.02 %ID/g | tissue uptake at 1 h ([1]; brain, + (+)-7 HCl 0.53 mg/kg, read-out: radioactivity in brain): 0.28 %ID/g | tissue uptake at 1 h ([1]; brain, + (-)-7 HCl 0.53 mg/kg, read-out: radioactivity in brain): 0.29 %ID/g | tissue uptake at 1 h [1, 4]: 0.31 %ID/g | tissue uptake at 1 h [1, 5]: 0.93 %ID/g | tissue uptake at 1 h ([1]; heart, + (+)-7 HCl 0.53 mg/kg, read-out: radioactivity in heart): 0.12 %ID/g | tissue uptake at 1 h ([1]; heart, + (-)-7 HCl 0.53 mg/kg, read-out: radioactivity in heart): 0.13 %ID/g | tissue uptake at 1 h [1, 6]: 0.13 %ID/g | tissue uptake at 1 h [1, 7]: 0.79 %ID/g | tissue uptake at 1 h ([1]; kidney, + (+)-7 HCl 0.53 mg/kg, read-out: radioactivity in kidney): 0.46 %ID/g | tissue uptake at 1 h ([1]; kidney, + (-)-7 HCl 0.53 mg/kg, read-out: radioactivity in kidney): 0.42 %ID/g | tissue uptake at 1 h [1, 8]: 0.35 %ID/g | tissue uptake at 1 h [1, 9]: 1.9 %ID/g | tissue uptake at 1 h [1, 10]: 4.18 %ID/g | tissue uptake at 1 h [1, 11]: 2.68 %ID/g | tissue uptake at 1 h ([1]; lung, + (+)-7 HCl 0.53 mg/kg, read-out: radioactivity in lung): 1.64 %ID/g | tissue uptake at 1 h ([1]; lung, + (-)-7 HCl 0.53 mg/kg, read-out: radioactivity in lung): 1.04 %ID/g | tissue uptake at 1 h [1, 12]: 0.95 %ID/g | tissue uptake at 1 h [1, 13]: 3.63 %ID/g | tissue uptake at 1 h ([1]; muscle, + (+)-7 HCl 0.53 mg/kg, read-out: radioactivity in muscle): 0.07 %ID/g | tissue uptake at 1 h ([1]; muscle, + (-)-7 HCl 0.53 mg/kg, read-out: radioactivity in muscle): 0.08 %ID/g | tissue uptake at 1 h [1, 14]: 0.06 %ID/g | tissue uptake at 1 h [1, 15]: 0.21 %ID/g | tissue uptake at 1 h ([1]; spleen, + (+)-7 HCl 0.53 mg/kg, read-out: radioactivity in spleen): 0.57 %ID/g | tissue uptake at 1 h ([1]; spleen, + (-)-7 HCl 0.53 mg/kg, read-out: radioactivity in spleen): 0.57 %ID/g | tissue uptake at 1 h [1, 16]: 0.6 %ID/g | tissue uptake at 1 h [1, 17]: 1.42 %ID/g

OC(CN1CCC(c2ccccc2)CC1)c1ccc([125I])cc1 (single isomer, unassigned; (+)) [(+)-[^125 l]13, 1-(4-Iodophenyl)-2-(4-phenylpiperidinyl)ethanol]
tissue uptake at 1 h [1, 3]: 0.05 %ID/g | tissue uptake at 1 h [1, 4]: 0.24 %ID/g | tissue uptake at 1 h [1, 5]: 0.87 %ID/g | tissue uptake at 1 h [1, 6]: 0.08 %ID/g | tissue uptake at 1 h [1, 7]: 0.22 %ID/g | tissue uptake at 1 h [1, 8]: 0.41 %ID/g | tissue uptake at 1 h [1, 9]: 1.87 %ID/g | tissue uptake at 1 h [1, 10]: 2.53 %ID/g | tissue uptake at 1 h [1, 11]: 1.85 %ID/g | tissue uptake at 1 h [1, 12]: 0.42 %ID/g | tissue uptake at 1 h [1, 13]: 1.01 %ID/g | tissue uptake at 1 h [1, 14]: 0.06 %ID/g | tissue uptake at 1 h [1, 15]: 0.14 %ID/g | tissue uptake at 1 h [1, 16]: 0.33 %ID/g | tissue uptake at 1 h [1, 17]: 0.88 %ID/g | tissue uptake at 5 min ([2]; blood, radioactivity in blood, 5 min): 0.1 %ID/g | tissue uptake at 1 h ([2]; blood, radioactivity in blood, 60 min): 0.03 %ID/g | tissue uptake at 5 min ([2]; brain, radioactivity in brain, 5 min): 1.43 %ID/g | tissue uptake at 1 h ([2]; brain, radioactivity in brain, 60 min): 1.29 %ID/g | tissue uptake at 5 min ([2]; heart, radioactivity in heart, 5 min): 1.34 %ID/g | tissue uptake at 1 h ([2]; heart, radioactivity in heart, 60 min): 0.25 %ID/g | tissue uptake at 5 min ([2]; kidney, radioactivity in kidney, 5 min): 3.12 %ID/g | tissue uptake at 1 h ([2]; kidney, radioactivity in kidney, 60 min): 1.86 %ID/g | tissue uptake at 5 min ([2]; liver, radioactivity in liver, 5 min): 1.19 %ID/g | tissue uptake at 1 h ([2]; liver, radioactivity in liver, 60 min): 2.18 %ID/g | tissue uptake at 5 min ([2]; lung, radioactivity in lung, 5 min): 7.87 %ID/g | tissue uptake at 5 min ([2]; muscle, radioactivity in muscle, 5 min): 0.33 %ID/g | tissue uptake at 1 h ([2]; muscle, radioactivity in muscle, 60 min): 0.14 %ID/g | tissue uptake at 5 min ([2]; spleen, radioactivity in spleen, 5 min): 0.92 %ID/g | tissue uptake at 1 h ([2]; spleen, radioactivity in spleen, 60 min): 0.9 %ID/g

OC(CN1CCC(c2ccccc2)CC1)c1ccc([125I])cc1 (single isomer, unassigned; (-)) [(-)-[^125 l]13] [1-(4-Iodophenyl)-2-(4-phenylpiperidinyl)ethanol]
radioactivity in heart (vesamicol receptor; [18]): 0.08 % dose/g of tissue | Brain: Blood Ratio (vesamicol receptor; [18]): 1.61 | Heart: Blood Ratio (vesamicol receptor; [18]): 0.99 | radioactivity in blood (vesamicol receptor; [18]): 0.08 % dose/g of tissue | radioactivity in brain (vesamicol receptor; [18]): 0.13 % dose/g of tissue | radioactivity in kidney (vesamicol receptor; [18]): 0.38 % dose/g of tissue | radioactivity in liver (vesamicol receptor; [18]): 1.44 % dose/g of tissue | radioactivity in lung (vesamicol receptor; [18]): 0.34 % dose/g of tissue | radioactivity in muscle (vesamicol receptor; [18]): 0.07 % dose/g of tissue | radioactivity in spleen (vesamicol receptor; [18]): 0.27 % dose/g of tissue | Brain: Blood Ratio (vesamicol receptor; radiotracer only (control)): 7.41 | Heart: Blood Ratio (vesamicol receptor; radiotracer only (control)): 1.31 | radioactivity in blood (vesamicol receptor; radiotracer only (control)): 0.10 % dose/g of tissue | radioactivity in brain (vesamicol receptor; radiotracer only (control)): 0.73 % dose/g of tissue | radioactivity in heart (vesamicol receptor; radiotracer only (control)): 0.13 % dose/g of tissue | radioactivity in kidney (vesamicol receptor; radiotracer only (control)): 1.26 % dose/g of tissue | radioactivity in liver (vesamicol receptor; radiotracer only (control)): 1.66 % dose/g of tissue | radioactivity in lung (vesamicol receptor; radiotracer only (control)): 0.66 % dose/g of tissue | radioactivity in muscle (vesamicol receptor; radiotracer only (control)): 0.11 % dose/g of tissue | radioactivity in spleen (vesamicol receptor; radiotracer only (control)): 0.61 % dose/g of tissue | decrease of concentration in the brain ([2]; 3 hours post-injection vs initial, listed as (-)-[^125 I]13): 85% | initial accumulation in the rat brain ([2]; initial, listed as (-)-[^125 I]13): 1.69 % of the injected dose | Brain: Blood Ratio ([2]; 5 min): 8.7 | Heart: Blood Ratio ([2]; 5 min): 6.2 | radioactivity in blood ([2]; 5 min): 0.13 % dose/g | radioactivity in brain ([2]; 5 min): 1.08 % dose/g | radioactivity in heart ([2]; 5 min): 0.77 % dose/g | radioactivity in kidney ([2]; 5 min): 3.38 % dose/g | radioactivity in liver ([2]; 5 min): 1.72 % dose/g | radioactivity in lung ([2]; 5 min): 5.05 % dose/g | radioactivity in muscle ([2]; 5 min): 0.32 % dose/g | radioactivity in spleen ([2]; 5 min): 0.70 % dose/g | Brain: Blood Ratio ([2]; 60 min): 11.1 | Heart: Blood Ratio ([2]; 60 min): 2.0 | radioactivity in blood ([2]; 60 min): 0.06 % dose/g | radioactivity in brain ([2]; 60 min): .70 % dose/g | radioactivity in heart ([2]; 60 min): 0.13 % dose/g | radioactivity in kidney ([2]; 60 min): 1.47 % dose/g | radioactivity in liver ([2]; 60 min): 1.90 % dose/g | radioactivity in lung ([2]; 60 min): 0.54 % dose/g | radioactivity in muscle ([2]; 60 min): 0.11 % dose/g | radioactivity in spleen ([2]; 60 min): 0.57 % dose/g | Brain: Blood Ratio ([2]; 180 min): 5.5 | Heart: Blood Ratio ([2]; 180 min): 0.9 | radioactivity in blood ([2]; 180 min): 0.06 % dose/g | radioactivity in brain ([2]; 180 min): 0.35 % dose/g | radioactivity in heart ([2]; 180 min): 0.05 % dose/g | radioactivity in kidney ([2]; 180 min): 0.74 % dose/g | radioactivity in liver ([2]; 180 min): 0.98 % dose/g | radioactivity in lung ([2]; 180 min): 0.24 % dose/g | radioactivity in muscle ([2]; 180 min): 0.05 % dose/g | radioactivity in spleen ([2]; 180 min): 0.23 % dose/g
